Structures are written as SMILES.

27 compounds from patent publication US8431565B2 (priority 2007, dated 2013) can be followed below.

This test deals with human CB1 receptor (hCB1) (Homo sapiens, UniProt P21554). The format is cell-based.
Chain of human CB1 receptor (hCB1) (P21554 whole entry): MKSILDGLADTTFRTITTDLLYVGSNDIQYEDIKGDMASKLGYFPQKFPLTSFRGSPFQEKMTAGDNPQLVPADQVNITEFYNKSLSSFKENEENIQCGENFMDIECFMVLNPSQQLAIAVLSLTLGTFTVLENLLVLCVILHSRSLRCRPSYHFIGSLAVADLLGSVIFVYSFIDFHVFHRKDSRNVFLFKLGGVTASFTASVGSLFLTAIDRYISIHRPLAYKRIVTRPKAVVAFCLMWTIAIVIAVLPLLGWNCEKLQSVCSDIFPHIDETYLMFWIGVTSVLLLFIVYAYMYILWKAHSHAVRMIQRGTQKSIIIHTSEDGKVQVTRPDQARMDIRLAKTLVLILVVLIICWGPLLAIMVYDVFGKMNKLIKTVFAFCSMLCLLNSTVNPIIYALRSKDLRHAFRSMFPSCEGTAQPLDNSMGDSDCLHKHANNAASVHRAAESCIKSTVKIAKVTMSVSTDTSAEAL
In the case of `CN1CCCn2c(-c3cc(F)c(F)cc3F)nc(C(=O)N3CCOCC3)c2C1` [Compound 859, (8-methyl-3-(2,4,5-trifluorophenyl)-6,7,8,9-tetrahydro-5H-imidazo[1,5-a][1,4]diazepin-1-yl)(morpholino)methanone], the EC50 is over 10 µM.

In the case of `CN1CCCn2c(-c3cc(F)c(F)cc3F)nc(C(=O)NCC3CCOCC3)c2C1` [Compound 764, 8-methyl-N-((tetrahydro-2H-pyran-4-yl)methyl)-3-(2,4,5-trifluorophenyl)-6,7,8,9-tetrahydro-5H-imidazo[1,5-a][1,4]diazepine-1-carboxamide], the EC50 is over 10 µM.

Take `CC(C)(C)[C@H](NC(=O)c1nc(-c2ccccc2)n2c1CNCC2)C(=O)NCCF` [Compound 731, (S)-N-(1-(2-fluoroethylamino)-3,3-dimethyl-1-oxobutan-2-yl)-3-phenyl-5,6,7,8-tetrahydroimidazo[1,5-a]pyrazine-1-carboxamide]: the EC50 is over 10 µM.

For the compound `CN1CCCn2c(-c3cc(F)c(F)cc3F)nc(C(=O)N3CCCCC3CN3CCOCC3)c2C1` (stereo not drawn) [Compound 789, (8-methyl-3-(2,4,5-trifluorophenyl)-6,7,8,9-tetrahydro-5H-imidazo[1,5-a][1,4]diazepin-1-yl)(2-(morpholinomethyl)piperidin-1-yl)methanone], the EC50 is over 10 µM.

The compound `CN1CCCn2c(-c3cc(F)c(F)cc3F)nc(C(=O)N3CC(O)C3)c2C1` [Compound 856, (3-hydroxyazetidin-1-yl)(8-methyl-3-(2,4,5-trifluorophenyl)-6,7,8,9-tetrahydro-5H-imidazo[1,5-a][1,4]diazepin-1-yl)methanone] showed an EC50 of over 10 µM.

Take `CNC(=O)[C@@H](NC(=O)c1nc(-c2ccc(C(C)=O)s2)n2c1CN(C)CCC2)C(C)(C)C` [Compound 704, (S)-3-(5-acetylthiophen-2-yl)-N-(3,3-dimethyl-1-(methylamino)-1-oxobutan-2-yl)-8-methyl-6,7,8,9-tetrahydro-5H-imidazo[1,5-a][1,4]diazepine-1-carboxamide]: the concentration for a half-maximal effect (EC50) is over 10 µM.

Compound `CNC(=O)[C@@H](NC(=O)c1nc(-c2cnn(S(=O)(=O)c3ccccc3)c2)n2c1CN(C)CCC2)C(C)(C)C` [Compound 776, (S)-N-(3,3-dimethyl-1-(methylamino)-1-oxobutan-2-yl)-8-methyl-3-(1-(phenylsulfonyl)-1H-pyrazol-4-yl)-6,7,8,9-tetrahydro-5H-imidazo[1,5-a][1,4]diazepine-1-carboxamide] yielded an EC50 of over 10 µM.

Compound `CNC(=O)[C@@H](NC(=O)c1nc(C2CCN(S(=O)(=O)C(C)C)CC2)n2c1CN(C)CCC2)C(C)(C)C` [Compound 775, (S)-N-(3,3-dimethyl-1-(methylamino)-1-oxobutan-2-yl)-3-(1-(isopropylsulfonyl)piperidin-4-yl)-8-methyl-6,7,8,9-tetrahydro-5H-imidazo[1,5-a][1,4]diazepine-1-carboxamide] yielded an EC50 of over 10 µM.

In turn, `CN1CCCn2c(-c3cc(Cl)c(F)cc3F)nc(C(=O)N3CC[C@H](O)C3)c2C1` [Compound 910, (S)-(3-(5-chloro-2,4-difluorophenyl)-8-methyl-6,7,8,9-tetrahydro-5H-imidazo[1,5-a][1,4]diazepin-1-yl)(3-hydroxypyrrolidin-1-yl)methanone] came in with an EC50 of over 10 µM.

The compound `CNC(=O)C1(NC(=O)c2nc(-c3cc(F)c(F)cc3F)n3c2CN(C)CCC3)CCCC1` [Compound 719, 8-methyl-N-(1-(methylcarbamoyl)cyclopentyl)-3-(2,4,5-trifluorophenyl)-6,7,8,9-tetrahydro-5H-imidazo[1,5-a][1,4]diazepine-1-carboxamide] returned an EC50 of over 10 µM.

`CNC(=O)[C@@H](NC(=O)c1nc(C2CCN(C(=O)c3ccccc3)CC2)n2c1CN(C)CCC2)C(C)(C)C` [Compound 726, (S)-3-(1-benzoylpiperidin-4-yl)-N-(3,3-dimethyl-1-(methylamino)-1-oxobutan-2-yl)-8-methyl-6,7,8,9-tetrahydro-5H-imidazo[1,5-a][1,4]diazepine-1-carboxamide]: the EC50 was over 10 µM.

As to `CNC(=O)[C@@H](NC(=O)c1nc(-c2cnn(CC(C)C)c2)n2c1CN(C)CCC2)C(C)(C)C` [Compound 710, (S)-N-(3,3-dimethyl-1-(methylamino)-1-oxobutan-2-yl)-3-(1-isobutyl-1H-pyrazol-4-yl)-8-methyl-6,7,8,9-tetrahydro-5H-imidazo[1,5-a][1,4]diazepine-1-carboxamide], the EC50 is over 10 µM.

For `CNC(=O)[C@@H](NC(=O)c1nc(C2=CCCCO2)n2c1CN(C)CCC2)C(C)(C)C` [Compound 452, (S)-3-(3,4-dihydro-2H-pyran-6-yl)-N-(3,3-dimethyl-1-(methylamino)-1-oxobutan-2-yl)-8-methyl-6,7,8,9-tetrahydro-5H-imidazo[1,5-a][1,4]diazepine-1-carboxamide], the 50% effective concentration (EC50) was over 10 µM.

For the compound `CN1CCCn2c(-c3cc(Cl)c(F)cc3F)nc(C(=O)NC3(C(=O)N4CC(F)(F)C4)CC3)c2C1` [Compound 873, 3-(5-chloro-2,4-difluorophenyl)-N-(1-(3,3-difluoroazetidine-1-carbonyl)cyclopropyl)-8-methyl-6,7,8,9-tetrahydro-5H-imidazo[1,5-a][1,4]diazepine-1-carboxamide], the half-maximal effective concentration (EC50) is over 10 µM.

`CNC(=O)[C@@H](NC(=O)c1nc(-c2cnn(-c3ccccc3)c2C)n2c1CN(C)CCC2)C(C)(C)C` [Compound 709, (S)-N-(3,3-dimethyl-1-(methylamino)-1-oxobutan-2-yl)-8-methyl-3-(5-methyl-1-phenyl-1H-pyrazol-4-yl)-6,7,8,9-tetrahydro-5H-imidazo[1,5-a][1,4]diazepine-1-carboxamide] showed an EC50 of over 10 µM.

`CNC(=O)[C@@H](NC(=O)c1nc(-c2ccccc2N)n2c1CN(C)CCC2)C(C)(C)C` [Compound 646, (S)-3-(2-aminophenyl)-N-(3,3-dimethyl-1-(methylamino)-1-oxobutan-2-yl)-8-methyl-6,7,8,9-tetrahydro-5H-imidazo[1,5-a][1,4]diazepine-1-carboxamide] gave an EC50 of over 10 µM.

For `CNC(=O)[C@@H]1CCN(C(=O)c2nc(-c3cc(F)c(F)cc3F)n3c2CN(C)CCC3)C1` [Compound 758, (R)-N-methyl-1-(8-methyl-3-(2,4,5-trifluorophenyl)-6,7,8,9-tetrahydro-5H-imidazo[1,5-a][1,4]diazepine-1-carbonyl)pyrrolidine-3-carboxamide], the EC50 was over 10 µM.

In turn, `CC1CN(C(=O)c2nc(-c3cc(F)c(F)cc3F)n3c2CN(C)CCC3)CC(C)O1` (stereo not drawn) [Compound 854, (2,6-dimethylmorpholino)(8-methyl-3-(2,4,5-trifluorophenyl)-6,7,8,9-tetrahydro-5H-imidazo[1,5-a][1,4]diazepin-1-yl)methanone] yielded an EC50 of over 10 µM.

On to `CNC(=O)[C@@H](NC(=O)c1nc(-c2cccnc2C)n2c1CN(C)CCC2)C(C)(C)C` [Compound 640, (S)-N-(3,3-dimethyl-1-(methylamino)-1-oxobutan-2-yl)-8-methyl-3-(2-methylpyridin-3-yl)-6,7,8,9-tetrahydro-5H-imidazo[1,5-a][1,4]diazepine-1-carboxamide], for which the concentration giving a half-maximal response (EC50) was over 10 µM.

Consider `CNC(=O)[C@@H](NC(=O)c1nc(-c2cnccc2Cl)n2c1CN(C)CCC2)C(C)(C)C` [Compound 627, (S)-3-(4-chloropyridin-3-yl)-N-(3,3-dimethyl-1-(methylamino)-1-oxobutan-2-yl)-8-methyl-6,7,8,9-tetrahydro-5H-imidazo[1,5-a][1,4]diazepine-1-carboxamide], for which the EC50 is over 10 µM.

Regarding `CNC(=O)[C@@H](NC(=O)c1nc(-c2cc(F)c(F)cc2F)n2c1CN(c1cncc(Cl)n1)CCC2)C(C)(C)C` [Compound 718, (S)-8-(6-chloropyrazin-2-yl)-N-(3,3-dimethyl-1-(methylamino)-1-oxobutan-2-yl)-3-(2,4,5-trifluorophenyl)-6,7,8,9-tetrahydro-5H-imidazo[1,5-a][1,4]diazepine-1-carboxamide], the EC50 is over 10 µM.

Turning to `CN1CCCn2c(-c3cc(Cl)ccc3F)nc(C(=O)N[C@H](CNS(C)(=O)=O)C(C)(C)C)c2C1` [Compound 771, (S)-3-(5-chloro-2-fluorophenyl)-N-(3,3-dimethyl-1-(methylsulfonamido)butan-2-yl)-8-methyl-6,7,8,9-tetrahydro-5H-imidazo[1,5-a][1,4]diazepine-1-carboxamide], the EC50 is over 10 µM.

Consider `CN1CCCn2c(-c3cc(Cl)ccc3F)nc(C(=O)N[C@H](CN)C(C)(C)C)c2C1` [Compound 768, (S)-N-(1-amino-3,3-dimethylbutan-2-yl)-3-(5-chloro-2-fluorophenyl)-8-methyl-6,7,8,9-tetrahydro-5H-imidazol[1,5-a][1,4]diazepine-1-carboxamide], for which the EC50 is over 10 µM.

`CNC(=O)[C@@H]1CCN(C(=O)c2nc(-c3cc(Cl)c(F)cc3F)n3c2CN(C)CCC3)C1` [Compound 808, (R)-1-(3-(5-chloro-2,4-difluorophenyl)-8-methyl-6,7,8,9-tetrahydro-5H-imidazo[1,5-a][1,4]diazepine-1-carbonyl)-N-methylpyrrolidine-3-carboxamide] had an EC50 of over 10 µM.

In turn, `CNC(=O)[C@@H](NC(=O)c1nc(-c2cccnc2Cl)n2c1CN(C)CCC2)C(C)(C)C` [Compound 628, (S)-3-(2-chloropyridin-3-yl)-N-(3,3-dimethyl-1-(methylamino)-1-oxobutan-2-yl)-8-methyl-6,7,8,9-tetrahydro-5H-imidazo[1,5-a][1,4]diazepine-1-carboxamide] returned an EC50 of over 10 µM.

Regarding `CNC(=O)[C@@H](NC(=O)c1nc(-c2ccccc2C)n2c1CN(C)CCC2)C(C)(C)C` [Compound 647, (S)-N-(3,3-dimethyl-1-(methylamino)-1-oxobutan-2-yl)-8-methyl-3-o-tolyl-6,7,8,9-tetrahydro-5H-imidazo[1,5-a][1,4]diazepine-1-carboxamide], the EC50 is over 10 µM.

For `CN1CCCn2c(-c3cc(Cl)ccc3F)nc(C(=O)N[C@H](C(=O)N[C@H]3CCC[C@H]3O)C(C)(C)C)c2C1` [Compound 840, 3-(5-chloro-2-fluorophenyl)-N-((S)-1-((1S,2R)-2-hydroxycyclopentylamino)-3,3-dimethyl-1-oxobutan-2-yl)-8-methyl-6,7,8,9-tetrahydro-5H-imidazo[1,5-a][1,4]diazepine-1-carboxamide], the EC50 was over 10 µM.
